The values that follow come from patent publication US4537614A, “S-aryl and S-aliphatic diamidophosphorothiolates as urease inhibitors and urease inhibited urea based fertilizer compositions” (Allied Corporation, priority 1984, dated 1985).

The test system of test [1] is urease. The experiment in a line: Urease Inhibiting Efficacy Test in New York soil (Cazenovia silt loam, pH 7.2). Format: biochemical. To be noted: 25° C., 3 days, remaining urea. As to the method:
(§1) Representative compounds were tested to evaluate their efficacy in the inhibition of urease as compared to structurally similar compounds. The inhibition tests were run in a New York soil (Cazenovia silt loam, pH 7.2) and a Wisconsin soil (Plano silt loam, pH 5.4). […] The bottle was capped with perforated aluminum foil and incubated at 25° C. for 3 days prior to extraction with 100 mL of a 2M potassium chloride solution containing 0.5 mg of phenylmercuric acetate. The extracts were then analyzed for remaining urea using an autoanalyzer. Percent inhibition was calculated as
(§2) % Inhibition=[1-(A-B/A-C)]×100%
(§3) where A is urea recovered from unincubated sample (urea added to soil and immediately extracted); B is urea recovered from inhibited sample; and C is urea recovered from the control (uninhibited sample).

Test [2] has as its system urease. In words: Urease Inhibiting Efficacy Test in Wisconsin soil (Plano silt loam, pH 5.4). It counts as biochemical. The note with it: 25° C., 3 days, remaining urea. As to the method:
as §1, §2, §3

Test [3] has as its system urease. In words: Efficacy as urease inhibitor, general statement (long term residual activity). To be noted: primarily because of relatively long term residual activity.
Setting [4] is: 800 micrograms test compound + 42.8 mg urea per 20 g air dry soil.
The mark [5] stands for this setting: 200 micrograms test compound (footnote *) + 42.8 mg urea per 20 g air dry soil.

Regarding `COP(N)(N)=O` [Comp. Ex. 1, reference compound], the “% Inhibition Cazenovia Soil” value in test [1] (setting [4]) is given as 34%.

`CCCOP(N)(N)=O` [Comp. Ex. 2, reference compound]: the “% Inhibition Cazenovia Soil” value in test [1] (setting [4]) was 15%.

As to `CCCCSP(N)(N)=O` [Experiment 2, S-(n-Butyl) Diamidophosphorothiolate], the “% Inhibition Wisconsin Soil” value in test [2] (setting [5]) is given as 82%. Moreover, in test [1] (setting [5]), the “% Inhibition Cazenovia Soil” value is listed as 74%. Besides, the “efficacy among the especially efficacious compounds” value in test [3] was “most efficacious”.

Regarding `CCC(C)SP(N)(N)=O` (stereo not drawn) [Experiment 3, S-(2-Butyl) Diamidophosphorothiolate], in test [2] (setting [5]), the “% Inhibition Wisconsin Soil” value is reported as 84%. The “% Inhibition Cazenovia Soil” value in test [1] (setting [5]) was 74%.

`CC(C)CSP(N)(N)=O` [Experiment 4, S-(iso-Butyl) Diamidophosphorothiolate]: the “% Inhibition Wisconsin Soil” value in test [2] (setting [5]) worked out at 83%. Also, the “% Inhibition Cazenovia Soil” value in test [1] (setting [5]) came out at 80%. The “efficacy among the especially efficacious compounds” value in test [3] is given as “most efficacious”.

Consider `CCCCCCSP(N)(N)=O` [Experiment 5, S-(n-Hexyl) Diamidophosphorothiolate], for which the “% Inhibition Wisconsin Soil” value in test [2] (setting [5]) was 66%. The “% Inhibition Cazenovia Soil” value in test [1] (setting [5]) is on record as 52%. Moreover, the “efficacy among the especially efficacious compounds” value in test [3] is listed as “most efficacious”.

Regarding `NP(N)(=O)SC1CCCCC1` [Experiment 6, S-(Cyclohexyl) Diamidophosphorothiolate], the “% Inhibition Wisconsin Soil” value in test [2] (setting [5]) turned out to be 58%. Also, in test [1] (setting [5]), the “% Inhibition Cazenovia Soil” value is given as 66%.

Consider `CSP(N)(N)=O` [S-Methyl Diamidophosphorothiolate], for which the “% Inhibition Wisconsin Soil” value in test [2] (setting [4]) worked out at 93%. For the same molecule, the “% Inhibition Cazenovia Soil” value in test [1] (setting [4]) was 93%.
